Broadly, the IC50 is the concentration at which inhibition is half-maximal.

Structures are written as SMILES. Activity calls are given as the source filed them.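 Rule for the calls: active = displacement of at least 50% at 20 µM, with a fluorescence ratio check between 0.3 and a set limit; inactive = the rest.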 Some results are limits rather than exact numbers.

Chain of E3 ubiquitin-protein ligase SIAH1 (Homo sapiens) (Q8IUQ4 whole entry, looked up): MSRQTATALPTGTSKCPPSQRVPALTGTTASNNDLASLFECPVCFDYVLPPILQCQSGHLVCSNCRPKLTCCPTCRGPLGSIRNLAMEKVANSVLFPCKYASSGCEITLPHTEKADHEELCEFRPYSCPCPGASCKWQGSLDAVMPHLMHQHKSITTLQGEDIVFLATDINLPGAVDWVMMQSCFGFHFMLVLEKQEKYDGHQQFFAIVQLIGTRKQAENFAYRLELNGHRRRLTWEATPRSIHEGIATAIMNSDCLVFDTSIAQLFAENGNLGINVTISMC

This test has as its target E3 ubiquitin-protein ligase SIAH1 (Homo sapiens) (UniProt Q8IUQ4). In words: Siah-1 peptide-binding antagonists, primary screen, biochemical, fluorescence polarization, rhodamine-plectin, uHTS (AID 1817). The conditions noted are these: Siah-1 / rhodamine-plectin peptide fluorescence polarization. (In general: In fluorescence polarisation assays a small probe gives low polarisation when free and higher when bound to something large.)
For `CC1CCCCC1NC(=O)CCS(=O)(=O)c1ccc2c(c1)NC(=O)CO2` (centres undefined), the IC50 is > 200 µM (inactive).
For the compound `Cc1cc2cc(CNC(=O)c3ccc(S(=O)(=O)N4CCCCC4)cc3)ccc2n1C`, the IC50 was > 200 µM (inactive).
The result for `COc1cc(/C=C2/SC(=S)N(Cc3ccccc3)C2=O)cc(Cl)c1O` reads > 200 µM (inactive); that for `CC1=C(C#N)c2nc(N)c(C#N)c(C)c2/C1=C\c1ccc(-c2ccccc2C(=O)O)o1`, 20.6 µM.
In the case of `O=C(O)c1cc(Cl)c(Cl)cc1C(=O)Nc1cccc2cccnc12` it was > 200 µM (inactive); in that of `O=C(CSc1ccc(Br)c2cccc(Cl)c12)Nc1ccc(S(=O)(=O)Nc2nccs2)cc1`, > 200 µM (inactive).
In the case of `Cc1ccc(NC(=O)CCC(=O)NNC(=O)c2ccccc2[N+](=O)[O-])c(C)c1` it was > 200 µM (inactive).
`CC1CCN(C(=O)C2CCC(C)(C(=O)O)C2(C)C)CC1` (centres undefined): the IC50 was > 200 µM (inactive).
As for `Cc1ccc(C(=O)NC2CC3CCCC(C2)N3C(=O)NC2CCCCC2)cc1` (centres undefined), the IC50 is > 200 µM (inactive).
As for `CC12CCC(C(=O)NCc3ccc(Cl)cc3)(OC1=O)C2(C)C` (centres undefined), the IC50 was > 200 µM (inactive).
In the case of `COc1ccc(CCNC(=O)CCC(=O)N2CCOc3ccc(C)cc32)cc1OC` it was > 200 µM (inactive); in that of `CCCCn1c(NS(=O)(=O)c2ccccc2)c(C(=O)OCC)c2nc3ccccc3nc21`, > 200 µM (inactive).
For `Oc1ccc(N=Cc2ccc(OCc3ccccc3)cc2)cc1`, the IC50 result is “inactive”.
In the case of `CCc1nnc(NS(=O)(=O)c2ccc(NC(=S)NC(=O)/C=C/c3ccc(C(C)C)cc3)cc2)s1` it was 19.2 µM; in that of `CCC(C)N1C(=O)/C(=C/c2c(NCCCOC(C)C)nc3c(C)cccn3c2=O)SC1=S` (centres undefined), > 200 µM (inactive).
In the case of `C=CCc1cccc2cc(C(=O)Nc3ccc(CC(=O)O)cc3)c(=O)oc12` it was 17.3 µM.
With `Cc1ccc(S(=O)(=O)N2CCC(=O)N(C(COCc3cccc(C)c3)Cc3ccccc3)CC2)cc1` (centres undefined), the IC50 was > 200 µM (inactive).
As to `C[N+]1(CCNC(=O)/C=N/O)CCCCC1`, the IC50 was > 200 µM (inactive).
Take `CC(C)COc1ccc(-c2nn(-c3ccccc3)cc2/C=C2/SC(=S)N(CC(=O)O)C2=O)cc1`: the IC50 was > 200 µM (inactive).
As to `CCOc1ccccc1CNc1ccc(O)cc1`, the IC50 result was “inactive”.
As for `CC(C)(C)c1ccc(C(CC(=O)O)NC(=O)Cc2ccc(F)cc2)cc1` (centres undefined), the IC50 was 25.6 µM.
In the case of `CC(=O)Nc1ccc(N=Cc2c(O)c(C(=O)Nc3ccccc3)cc3ccccc23)cc1` it was 24.9 µM; in that of `CCCCn1c(NC(=O)c2ccc(Br)o2)c(C(=O)OCC)c2nc3ccccc3nc21`, > 200 µM (inactive).
In the case of `Cc1c(C(=O)O)sc2nc(CSc3ncc(C(F)(F)F)cc3Cl)[nH]c(=O)c12` it was > 200 µM (inactive); in that of `CC(NC(=O)Nc1ccc(O)cc1)(C(F)(F)F)C(F)(F)F`, > 200 µM (inactive).
Regarding `O=C(Nc1ccc(Cl)cc1)c1ccc(S(=O)(=O)N2CCOCC2)cc1`, the IC50 was > 200 µM (inactive).
For `O=C(/C=C/c1ccco1)OCc1nnc(-c2ccccc2)o1`, the IC50 was > 200 µM (inactive).
In the case of `O=C(Cn1cnc2scc(-c3ccccc3)c2c1=O)NCc1ccco1`, the IC50 was > 200 µM (inactive).
The result for `O=C(Nc1ccc(Br)cc1)c1ccc(N2C(=O)C3CC=CCC3C2=O)cc1` (centres undefined) reads 18.6 µM; that for `COC(=O)C1C=C2c3cccc4[nH]cc(c34)CC2N(C)C1` (centres undefined), “inactive”; that for `O=c1ccc2c(-c3ccccc3)c3ccc(O)cc3oc-2c1`, 11.1 µM.
Take `O=C(Nc1ccc(Oc2ccsc2C(=O)O)cc1)c1ccccc1F`: the IC50 was > 200 µM (inactive).
In the case of `COc1cc(/C=C(\C#N)c2nc3ccccc3[nH]2)ccc1OC(=O)c1ccco1` it was > 200 µM (inactive).
In the case of `COC(=O)c1ccc2c(c1)C(C)(C)C(/C=C/c1ccccc1O)=[N+]2C` it was > 200 µM (inactive).

The values are drawn from PubChem BioAssay AID1817 (Sanford-Burnham Center for Chemical Genomics, 2009).
